The term mortality denotes the percentage killed. Read a high mortality as fewer survivors.

The values below come from patent publication US11399542B2, “Pesticidally active heterocyclic derivatives with sulfur containing substituents” (SYNGENTA PARTICIPATIONS AG, priority 2017, dated 2022).

Each structure is given as a SMILES string.

Holding throughout (assay type): in vivo
For assay [1], the system named is Euschistus heros (Neotropical Brown Stink Bug). The experiment in a line: Example B9: Activity against Euschistus heros, sprayed soybean leaf. The conditions noted are these: 120 h, application rate 200 ppm, N2 nymphs on soybean leaf, 5 days after infestation, read-out: effect in at least one of the two categories (mortality or growth inhibition). The procedure:
Soybean leaf on agar in 24-well microtiter plates were sprayed with aqueous test solutions prepared from 10′000 ppm DMSO stock solutions. After drying the leaf were infested with N2 nymphs. The samples were assessed for mortality and growth inhibition in comparison to untreated samples 5 days after infestation.

In assay [2] the test system is Myzus persicae (Green Peach Aphid). The experiment in a line: Example B5: Activity against Myzus persicae, sprayed sunflower leaf discs. The conditions noted are these: foliar, 144 h, application rate 200 ppm, mixed-age aphids on sunflower leaf discs, 6 days after infestation. The procedure:
Sunflower leaf discs were placed on agar in a 24-well microtiter plate and sprayed with aqueous test solutions prepared from 10′000 ppm DMSO stock solutions. After drying, the leaf discs were infested with an aphid population of mixed ages. The samples were assessed for mortality 6 days after infestation.

For assay [3] the test system is unchanged. The experiment in a line: Example B6: Activity against Myzus persicae, systemic via roots of pea seedlings. The conditions noted are these: 144 h, test rate 24 ppm, pea seedling roots in test solution, 6 days. The procedure:
Roots of pea seedlings infested with an aphid population of mixed ages were placed directly in the aqueous test solutions prepared from 10′000 DMSO stock solutions. The samples were assessed for mortality 6 days after placing seedlings in test solutions.

The subject of assay [4] is Spodoptera littoralis (Egyptian Cotton Leaf Worm). The experiment in a line: Example B1: Activity against Spodoptera littoralis, sprayed cotton leaf discs. The conditions noted are these: foliar, 72 h, application rate 200 ppm, L1 larvae on cotton leaf discs, 3 days after infestation, read-out: control (at least one of mortality, anti-feedant effect, growth inhibition). The procedure: Cotton leaf discs were placed onto agar in 24-well microtiter plates and sprayed with aqueous test solutions prepared from 10′000 ppm DMSO stock solutions. After drying the leaf discs were infested with five L1 larvae. The samples were assessed for mortality, anti-feeding effect, and growth inhibition in comparison to untreated samples 3 days after infestation. Control of Spodoptera littoralis by a test sample is given when at least one of the categories mortality, anti-feedant effect, and growth inhibition is higher than the untreated sample.

Assay [5] deals with Diabrotica balteata (Corn Root Worm). Kind of assay: Example B4: Activity against Diabrotica balteata, sprayed maize sprouts. The conditions noted are these: 96 h, application rate 200 ppm, L2 larvae on maize sprouts, 4 days after infestation, read-out: effect in at least one of the two categories (mortality or growth inhibition). The procedure:
Maize sprouts placed onto an agar layer in 24-well microtiter plates were treated with aqueous test solutions prepared from 10′000 ppm DMSO stock solutions by spraying. After drying, the plates were infested with L2 larvae (6 to 10 per well). The samples were assessed for mortality and growth inhibition in comparison to untreated samples 4 days after infestation.

In assay [6] the test system is Plutella xylostella (Diamond Back Moth). Kind of assay: Example B12: Activity against Plutella xylostella, artificial diet, eggs. The conditions noted are these: 192 h, application rate 200 ppm, eggs on artificial diet, 8 days after infestation, read-out: effect in at least one of the two categories (mortality or growth inhibition). The procedure: 24-well microtiter plates with artificial diet were treated with aqueous test solutions prepared from 10′000 ppm DMSO stock solutions by pipetting. After drying, Plutella eggs were pipetted through a plastic stencil onto a gel blotting paper and the plate was closed with it. The samples were assessed for mortality and growth inhibition in comparison to untreated samples 8 days after infestation.

In the case of `CCSc1cc2c(cc1-c1nc3cc(C(F)(F)F)ncc3n1C)n(C)c(=O)n2C` [Compound P10, 5-ethylsulfanyl-1,3-dimethyl-6-[3-methyl-6-(trifluoromethyl)imidazo[4,5-c]pyridin-2-yl]benzimidazol-2-one], the percent effect (mortality or growth inhibition) at 200 ppm in assay [1] is ≥ 80%.
With `CCS(=O)(=O)c1cc2c(cc1-c1nc3cc(C(F)(F)F)nnc3n1C)n(C)c(=O)n2C` [Compound P11, 5-ethylsulfonyl-1,3-dimethyl-6-[7-methyl-3-(trifluoromethyl)imidazo[4,5-c]pyridazin-6-yl]benzimidazol-2-one], the mortality at 200 ppm in assay [2] was ≥ 80%. The mortality at 24 ppm in assay [3] was ≥ 80%. Further, the percent effect (mortality or growth inhibition) at 200 ppm in assay [1] is ≥ 80%.
On to `CCS(=O)(=O)c1cc2c(cc1-c1nc3cc(C(F)(F)F)cnc3n1C)n(S(=O)(=O)C1CC1)c(=O)n2C` [Compound P13, 1-cyclopropylsulfonyl-5-ethylsulfonyl-3-methyl-6-[3-methyl-6-(trifluoromethyl)imidazo[4,5-b]pyridin-2-yl]benzimidazol-2-one], for which the mortality at 200 ppm in assay [2] is ≥ 80%. In assay [3], the mortality at 24 ppm was ≥ 80%.
For the compound `CCS(=O)(=O)c1cc2c(cc1-c1nc3cc(C(F)(F)F)cnc3n1C)n(CSC)c(=O)n2C` [Compound P17, 6-ethylsulfonyl-1-methyl-3-(methylsulfanylmethyl)-5-[3-methyl-6-(trifluoromethyl)imidazo[4,5-b]pyridine-2-yl]benzimidazol-2-one], in assay [2], the mortality at 200 ppm is ≥ 80%. For the same compound, in assay [3], the mortality at 24 ppm was ≥ 80%. Further, the percent effect (mortality or growth inhibition) at 200 ppm in assay [1] was ≥ 80%.
With `CCS(=O)(=O)c1cc2c(cc1-c1nc3cc(C(F)(F)F)cnc3n1C)n(CC(F)(F)F)c(=O)n2C` [Compound P19, 6-ethylsulfonyl-1-methyl-5-[3-methyl-6-(trifluoromethyl)imidazo[4,5-b]pyridine-2-yl]-3-(2,2,2-trifluoroethyl) benzimidazol-2-one], in assay [4], the percent control (mortality, anti-feedant effect or growth inhibition) at 200 ppm was ≥ 80%. Besides, the percent effect (mortality or growth inhibition) at 200 ppm in assay [5] and in assay [1] was ≥ 80% throughout. Besides, the mortality at 200 ppm in assay [2] is ≥ 80%. The mortality at 24 ppm in assay [3] is ≥ 80%.
For the compound `CCS(=O)(=O)c1cc2c(cc1-c1nc3cc(C(F)(F)F)cnc3n1C)n(C(=O)C1CC1)c(=O)n2C` [Compound P20, 1-(cyclopropanecarbonyl)-5-ethylsulfonyl-3-methyl-6-[3-methyl-6-(trifluoromethyl)imidazo[4,5-b]pyridine-2-yl]benzimidazol-2-one], in assay [2], the mortality at 200 ppm was ≥ 80%.
Turning to `CCOC(=O)n1c(=O)n(C)c2cc(S(=O)(=O)CC)c(-c3nc4cc(C(F)(F)F)cnc4n3C)cc21` [Compound P23, ethyl 5-ethylsulfonyl-3-methyl-6-[3-methyl-6-(trifluoromethyl)imidazo[4,5-b]pyridine-2-yl]-2-oxo-benzimidazole-1-carboxylate], the percent effect (mortality or growth inhibition) at 200 ppm in assay [5] was ≥ 80%. The mortality at 200 ppm in assay [2] is ≥ 80%. Moreover, the mortality at 24 ppm in assay [3] is ≥ 80%.
As to `CCSc1cc2c(nc1-c1nc3cc(C(F)(F)F)cnc3n1C)n(C)c(=O)n2C` [Compound P24, 6-ethylsulfanyl-1,3-dimethyl-5-[3-methyl-6-(trifluoromethyl)imidazo[4,5-b]pyridine-2-yl]imidazo[4,5-b]pyridine-2-one], in assay [5], the percent effect (mortality or growth inhibition) at 200 ppm was ≥ 80%.
On to `CCS(=O)(=O)c1cc2c(cc1-c1nc3cc(S(=O)(=O)C(F)(F)F)ccc3o1)n(C)c(=O)n2C` [Compound P25, 5-ethylsulfonyl-1,3-dimethyl-6-[5-(trifluoromethylsulfonyl)-1,3-benzoxazol-2-yl]benzimidazol-2-one], for which the percent control (mortality, anti-feedant effect or growth inhibition) at 200 ppm in assay [4] was ≥ 80%. Also, the percent effect (mortality or growth inhibition) at 200 ppm in assay [5], in assay [1] and in assay [6] was ≥ 80% each time.
As for `CCS(=O)(=O)c1cc2c(nc1-c1nc3cc(S(=O)(=O)C(F)(F)F)ccc3o1)n(C)c(=O)n2C` [Compound P26, 6-ethylsulfonyl-1,3-dimethyl-5-[5-(trifluoromethylsulfonyl)-1,3-benzoxazol-2-yl]imidazo[4,5-b]pyridine-2-one], the percent control (mortality, anti-feedant effect or growth inhibition) at 200 ppm in assay [4] was ≥ 80%. In addition, the percent effect (mortality or growth inhibition) at 200 ppm in assay [5] and in assay [6] was ≥ 80% in each case.
Regarding `CCS(=O)(=O)c1cc2c(nc1-c1nc3cc(SC(F)(F)F)ccc3o1)n(C)c(=O)n2C` [Compound P35, 6-ethylsulfonyl-1,3-dimethyl-5-[5-(trifluoromethylsulfanyl)-1,3-benzoxazol-2-yl]imidazo[4,5-b]pyridin-2-one], the percent control (mortality, anti-feedant effect or growth inhibition) at 200 ppm in assay [4] was ≥ 80%. Besides, the percent effect (mortality or growth inhibition) at 200 ppm in assay [5] and in assay [6] was ≥ 80% each time.
Regarding `CCS(=O)(=O)c1cc2c(cc1-c1nc3cc(S(=O)(=O)C(F)(F)F)ccc3n1C)n(C)c(=O)n2C` [Compound P37, 5-ethylsulfonyl-1,3-dimethyl-6-[1-methyl-5-(trifluoromethyl-sulfonyl)benzimidazol-2-yl]benzimidazol-2-one], in assay [2], the mortality at 200 ppm is ≥ 80%. The percent effect (mortality or growth inhibition) at 200 ppm in assay [1] and in assay [6] was ≥ 80% in each case.
As for `CCS(=O)(=O)c1cc2c(cc1-c1nc3cc(C(F)(F)F)ccc3o1)n(C)c(=O)n2C` [Compound P40, 5-ethylsulfonyl-1,3-dimethyl-6-[5-(trifluoromethyl)-1,3-benzoxazol-2-yl]benzimidazol-2-one], the percent effect (mortality or growth inhibition) at 200 ppm in assay [6] was ≥ 80%.
For the compound `CCSc1cc2c(cc1-c1nc3cc(SC(F)(F)F)ccc3n1C)n(C)c(=O)n2C` [Compound P42, 5-ethylsulfanyl-1,3-dimethyl-6-[1-methyl-5-(trifluoromethyl-sulfanyl)benzimidazol-2-yl]benzimidazol-2-one], the percent effect (mortality or growth inhibition) at 200 ppm in assay [1] and in assay [6] was ≥ 80% throughout.
Turning to `CCS(=O)(=O)c1cc2c(nc1-c1nc3cc([S+]([O-])C(F)(F)F)ccc3n1C)n(C)c(=O)n2C` (stereo not shown) [Compound P43, 6-ethylsulfonyl-1,3-dimethyl-5-[1-methyl-5-(trifluoromethyl-sulfinyl)benzimidazol-2-yl]imidazo[4,5-b]pyridin-2-one], in assay [2], the mortality at 200 ppm was ≥ 80%. Besides, in assay [3], the mortality at 24 ppm was ≥ 80%. Further, the percent effect (mortality or growth inhibition) at 200 ppm in assay [1] and in assay [6] was ≥ 80% each time.
For the compound `CCS(=O)(=O)c1cc2c(cc1-c1nc3cc([S+]([O-])C(F)(F)F)ccc3n1C)n(C)c(=O)n2C` (stereo not shown) [Compound P44, 5-ethylsulfonyl-1,3-dimethyl-6-[1-methyl-5-(trifluoromethyl-sulfinyl)benzimidazol-2-yl]benzimidazol-2-one], the mortality at 200 ppm in assay [2] was ≥ 80%. In assay [3], the mortality at 24 ppm was ≥ 80%. Moreover, the percent effect (mortality or growth inhibition) at 200 ppm in assay [1] and in assay [6] was ≥ 80% in each case.
